Results published in US20150299120A1, “Spirohydantoin compounds and their use as selective androgen receptor modulators” (NOVARTIS AG, priority 2012, published 2015).
Where two headings read alike, the source gives them in different places.

Target: T1, androgen receptor (AR) (Homo sapiens, UniProt P10275)
T1 construct: transfecting C2C12 cells with a plasmid containing full-length AR; expressed in transfected cells; host or cells: mouse myoblastic C2C12 cells (ATCC CRL-1772), transiently transfected with AR-FL in pcDNA 3.1(+)
T1 sequence (P10275 1-920): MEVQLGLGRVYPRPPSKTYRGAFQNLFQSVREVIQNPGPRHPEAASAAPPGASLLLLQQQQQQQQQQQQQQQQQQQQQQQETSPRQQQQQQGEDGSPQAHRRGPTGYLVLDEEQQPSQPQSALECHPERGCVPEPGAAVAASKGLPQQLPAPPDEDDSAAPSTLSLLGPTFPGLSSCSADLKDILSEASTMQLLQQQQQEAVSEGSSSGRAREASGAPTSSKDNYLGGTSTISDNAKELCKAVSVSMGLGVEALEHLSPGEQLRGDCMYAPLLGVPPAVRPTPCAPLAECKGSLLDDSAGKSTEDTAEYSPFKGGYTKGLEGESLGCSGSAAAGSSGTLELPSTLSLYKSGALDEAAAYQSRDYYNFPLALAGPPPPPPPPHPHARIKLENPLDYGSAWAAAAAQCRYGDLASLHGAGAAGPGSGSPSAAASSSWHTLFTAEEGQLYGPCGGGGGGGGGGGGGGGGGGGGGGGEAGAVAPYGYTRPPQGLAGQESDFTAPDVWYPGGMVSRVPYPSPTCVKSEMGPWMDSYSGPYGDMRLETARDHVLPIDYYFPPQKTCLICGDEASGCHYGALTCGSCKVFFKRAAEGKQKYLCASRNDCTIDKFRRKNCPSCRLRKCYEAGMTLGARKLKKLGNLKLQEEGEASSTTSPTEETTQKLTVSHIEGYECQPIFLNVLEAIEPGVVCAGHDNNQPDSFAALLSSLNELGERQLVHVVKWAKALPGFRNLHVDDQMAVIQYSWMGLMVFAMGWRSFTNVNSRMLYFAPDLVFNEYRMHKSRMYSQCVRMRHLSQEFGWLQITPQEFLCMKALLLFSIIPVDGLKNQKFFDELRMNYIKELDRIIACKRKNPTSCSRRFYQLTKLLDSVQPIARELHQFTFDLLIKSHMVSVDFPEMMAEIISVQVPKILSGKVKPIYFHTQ
Assay: Test 1: androgen receptor transcriptional activation (2XIDR17-luciferase) assay in transfected C2C12 cells
Format: cell-based
Conditions: for Emax: percentage activity relative to 1 μM DHT, read-out: Biological activity (C2C12 cell) Emax % (converted)
Description: A suitable assay to determine the ability of a ligand to transcriptionally activate androgen receptor (AR) is carried out using mouse myoblastic C2C12 cells. The assay involves transfecting C2C12 cells with a plasmid containing full-length AR along with an AR response element linked to luciferase (2XIDR17). The luminescence read-out at the end of the assay is measured using Victor 3 and is a direct measure of the transcriptional activity. The assay has been validated using the reference compound, BMS-564929, for which EC50 values have been reported in a similar set-up.
C2C12 cells were obtained from ATCC (Cat #CRL-1772) and maintained in DMEM modified to contain 4 mM L-glutamine, 4.5 g/L glucose, 1 mM sodium pyruvate and 1.5 g/L sodium bicarbonate and 10% FBS.
AR-FL in pcDNA 3.1(+) and 2XIDR17 in pGL4.26 plasmids prepared using Genelute plasmid miniprep kit from Sigma Cat #PLED35 Steadyglow Luciferase assay system Promega Cat #E2550
• C2C12 cells were seeded in a 96-well plate in DMEM (Dulbecco's Modified Eagle Medium) without phenol red and containing 10% CS-FBS (Charcoal-stripped Fetal Bovine Serum) at 8000 cells/well. • The next day, cells were transfected with an equimolar ratio of (Androgen Receptor-Full length) AR-FL and 2XIDR17-Luciferase at a total plasmid concentration of 200 ng/well using Lipofectamine 2000 following manufacturer's protocol. • For the transfection, 83 ng of AR-FL and 117 ng of 2XIDR17-Luciferase were in 12.5 μl of OptiMEM—Mix A. 0.4 μl of Lipofectamine 2000 was added to 12.5 μl of OptiMEM and incubated for 5 min at room temperature—Mix B. The two mixes A and B were mixed and incubated at room temperature for an additional fifteen minutes. An additional 50 μl of OptiMEM was added, gently mixed and this mixture was added to the cells in the 96-well plate. The above quantities are requirements per well of a 96-well plate. Master mixes were made for the entire plate, with proportional quantity of reagents being used. • 5 h after transfection, compounds were added to the wells in DMEM without phenol red and containing 10% CS-FBS, maintaining a final DMSO concentration of 0.5%. A typical dose response curve starts at 10 μM and includes a 7-point, log dilution, done in triplicates. • After overnight incubation with the compounds, 100 ul of working solution of Steadyglow reagent was added to the wells. • The plates were placed in a shaker for 15 min at the end of which the lysate containing luciferase was transferred to a white flat-bottom plate and read under a luminescence setting in Victor. • Background subtracted counts (Luminescence from DMSO control wells is considered the background) are used to calculate percentage activity, expressed relative to activity with 1 μM (Dihydrotestosterone) DHT (at least two sets of triplicates for 1 μM DHT are included per plate).
The EC50 curves for the compounds for 8 compound concentrations were fitted by the respective function using non-linear least-squares regression in Graphpad Prism 4.0 (Graphpad Software, San Diego, Calif., USA).

[1] = mouse myoblastic C2C12 cells transfected with full-length AR and 2XIDR17-luciferase, read-out: Biological activity (C2C12 cell) EC50
[2] = C2C12 cells, read-out: EC50 value in test 1
[3] = C2C12 cells, compound at 100 nM, relative to 1 μM DHT
[4] = C2C12 cells, compound at 5 μM, relative to 1 μM DHT

| Structure (SMILES) | Emax (C2C12, C2C12 cells) [%] | EC50 [2] [nM] | further results |
| --- | --- | --- | --- |
| Cc1c(N2C(=O)N(C)C3(CCCC3O)C2=O)ccc(C#N)c1Cl (stereo not drawn) [1.0] | 80 |  |  |
| CCN1C(=O)N(c2ccc(C#N)c(Cl)c2C)C(=O)C12CCCC2O (stereo not drawn) [1.3] | 79 |  |  |
| Cc1c(N2C(=O)N(C)[C@]3(CCC[C@@H]3F)C2=O)ccc(C#N)c1Cl [1.4(iv), 2-chloro-4-((5R,6S)-6-fluoro-1-methyl-2,4-dioxo-1,3-diazaspiro[4.4]nonan-3-yl)-3-methylbenzonitrile] |  |  | EC50 [1]: 0.79 nM |
| Cc1c(N2C(=O)N(C)C3(CCCC3F)C2=O)ccc(C#N)c1Cl (stereo not drawn) [1.4] | 60 |  |  |
| Cc1c(N2C(=O)N(C)C3(C=CCC3)C2=O)ccc(C#N)c1Cl (stereo not drawn) [1.5] | 66 |  |  |
| Cc1c(N2C(=O)N(C)C3(CCCC3C)C2=O)ccc(C#N)c1Cl (stereo not drawn) [1.7] | 91 |  |  |
| Cc1c(N2C(=O)N(CCN3CCOCC3)C3(CCCC3)C2=O)ccc(C#N)c1Cl [2-chloro-3-methyl-4-(1-(2-morpholinoethyl)-2,4-dioxo-1,3-diazaspiro[4.4]nonan-3-yl)benzonitrile] |  | > 30000 |  |
| CCOCCN1C(=O)N(c2ccc(C#N)c(Cl)c2C)C(=O)C12CCCC2 [2-chloro-4-(1-(2-ethoxyethyl)-2,4-dioxo-1,3-diazaspiro[4.4]nonan-3-yl)-3-methylbenzonitrile] |  | > 30000 |  |
| Cc1c(N2C(=O)N(CCOCC(C)C)C3(CCCC3)C2=O)ccc(C#N)c1Cl [2-chloro-4-(1-(2-isobutoxyethyl)-2,4-dioxo-1,3-diazaspiro[4.4]nonan-3-yl)-3-methylbenzonitrile] |  | > 30000 |  |
| Cc1c(N2C(=O)N(CCOC(C)C)C3(CCCC3)C2=O)ccc(C#N)c1Cl [2-chloro-4-(1-(2-isopropoxyethyl)-2,4-dioxo-1,3-diazaspiro[4.4]nonan-3-yl)-3-methylbenzonitrile] |  | > 30000 |  |
| Cc1c(N2C(=O)N(CCC3CCOCC3)C3(CCCC3)C2=O)ccc(C#N)c1Cl [2-chloro-4-(2,4-dioxo-1-(2-(tetrahydro-2H-pyran-4-yl)ethyl)-1,3-diazaspiro[4.4]nonan-3-yl)-3-methylbenzonitrile] |  | > 30000 |  |
| Cc1c(N2C(=O)N(CC3CCOCC3)C3(CCCC3)C2=O)ccc(C#N)c1Cl [2-chloro-4-(2,4-dioxo-1-((tetrahydro-2H-pyran-4-yl)methyl)-1,3-diazaspiro[4.4]nonan-3-yl)-3-methylbenzonitrile] |  |  | percent activity relative to 1 μM DHT at a single concentration at 0.1 µM (C2C12, C2C12 cells, compound at 100 nM, relative to 1 μM DHT, read-out: % Biological activity (C2C12 cell) 100 nM): 5%; percent activity relative to 1 μM DHT at a single concentration at 5 µM (C2C12, C2C12 cells, compound at 5 μM, relative to 1 μM DHT, read-out: % Biological activity (C2C12 cell) 5 μM): 12% |
| Cc1c(N2C(=O)N(C)C3(CCCC3)C2O)ccc(C#N)c1Cl (stereo not drawn) [2-chloro-4-(4-hydroxy-1-methyl-2-oxo-1,3-diazaspiro[4.4]nonan-3-yl)-3-methylbenzonitrile] |  | > 30000 |  |
| COC1N(c2ccc(C#N)c(Cl)c2C)C(=O)N(C)C12CCCC2 (stereo not drawn) [2-chloro-4-(4-methoxy-1-methyl-2-oxo-1,3-diazaspiro[4.4]nonan-3-yl)-3-methylbenzonitrile] |  | > 30000 |  |
| Cc1c(N2CC3(CCCC3F)N(C)C2=O)ccc(C#N)c1Cl (stereo not drawn) [2-chloro-4-(6-fluoro-1-methyl-2-oxo-1,3-diazaspiro[4.4]nonan-3-yl)-3-methylbenzonitrile] |  | > 30000 |  |
| Cc1c(N2CC3(CCCC3F)OC2=O)ccc(C#N)c1Cl (stereo not drawn) [2-chloro-4-(6-fluoro-2-oxo-1-oxa-3-azaspiro[4.4]nonan-3-yl)-3-methylbenzonitrile] |  | > 30000 |  |
| Cc1c(N2CC3(CCCC3O)OC2=O)ccc(C#N)c1Cl (stereo not drawn) [2-chloro-4-(6-hydroxy-2-oxo-1-oxa-3-azaspiro[4.4]nonan-3-yl)-3-methylbenzonitrile] |  | > 30000 |  |
| Cc1c(N2CC3(CCCC3O)N(C)C2=O)ccc(C#N)c1Cl (stereo not drawn) [2.0] | 76 |  | EC50 [1]: 2910 nM |
| Cc1c(N2C(=O)N(C)C3(CCC(F)C3)C2=O)ccc(C#N)c1Cl (stereo not drawn) [6.1] | 99 |  |  |
| Cc1c(N2C(=O)N(C)C3(CCOC3)C2=O)ccc(C#N)c1Cl (stereo not drawn) [10.0] | 60 |  |  |
| COC1N(c2ccc(C#N)c(Cl)c2C)C(=O)OC12CCCC2O (stereo not drawn) [Example 4.1, 2-chloro-4-(6-hydroxy-4-methoxy-2-oxo-1-oxa-3-azaspiro[4.4]nonan-3-yl)-3-methylbenzonitrile] | 40 |  | EC50 [1]: 2590 nM |
| Cc1c(N2C(=O)N(C)C3(CCC(O)C3)C2=O)ccc(C#N)c1Cl (stereo not drawn) [Example 6.0, 2-chloro-4-(7-hydroxy-1-methyl-2,4-dioxo-1,3-diazaspiro[4.4]nonan-3-yl)-3-methylbenzonitrile] | 70 |  | EC50 [1]: 53 nM |
| Cc1c(N2C(=O)N(CCc3ccncc3)C3(CCCC3)C2=O)ccc(C#N)c1Cl [Example 8.2, 2-chloro-4-(2,4-dioxo-1-(2-(pyridin-4-yl)ethyl)-1,3-diazaspiro[4.4]nonan-3-yl)-3-methylbenzonitrile] | 70 |  | EC50 [1]: 203 nM |
| Cc1cnc(CN2C(=O)N(c3ccc(C#N)c(Cl)c3C)C(=O)C23CCCC3)o1 [Example 8.7, 2-chloro-3-methyl-4-(1-((5-methyloxazol-2-yl)methyl)-2,4-dioxo-1,3-diazaspiro[4.4]nonan-3-yl)benzonitrile] | 112 |  | EC50 [1]: 8.9 nM |
| Cc1c(N2C(=O)N(Cc3ncc(CO)o3)C3(CCCC3)C2=O)ccc(C#N)c1Cl [Example 8.8, 2-chloro-4-(1-((5-(hydroxymethyl)oxazol-2-yl)methyl)-2,4-dioxo-1,3-diazaspiro[4.4]nonan-3-yl)-3-methylbenzonitrile] |  |  | % Biological activity (C2C12 cell) 100 nM [3]: 26%; % Biological activity (C2C12 cell) 5 μM [4]: 70% |
| Cc1c(N2C(=O)N(Cc3cnco3)C3(CCCC3)C2=O)ccc(C#N)c1Cl [Example 8.9, 2-chloro-3-methyl-4-(1-(oxazol-5-ylmethyl)-2,4-dioxo-1,3-diazaspiro[4.4]nonan-3-yl)benzonitrile] | 87 |  | EC50 [1]: 25 nM |
| Cc1ncc(CN2C(=O)N(c3ccc(C#N)c(Cl)c3C)C(=O)C23CCCC3)o1 [Example 8.10, 2-chloro-3-methyl-4-(1-((2-methyloxazol-5-yl)methyl)-2,4-dioxo-1,3-diazaspiro[4.4]nonan-3-yl)benzonitrile] |  |  | % Biological activity (C2C12 cell) 100 nM [3]: 20%; % Biological activity (C2C12 cell) 5 μM [4]: 66% |
